What was measured:
Details in all cases: average where tested multiple times
[1] = target: T1, hBCAT1 (Homo sapiens, UniProt P54687); assay: BCAT1 in vitro enzyme inhibition assay (resazurin/diaphorase-coupled fluorescence); format: biochemical
T1 sequence (P54687 1-386): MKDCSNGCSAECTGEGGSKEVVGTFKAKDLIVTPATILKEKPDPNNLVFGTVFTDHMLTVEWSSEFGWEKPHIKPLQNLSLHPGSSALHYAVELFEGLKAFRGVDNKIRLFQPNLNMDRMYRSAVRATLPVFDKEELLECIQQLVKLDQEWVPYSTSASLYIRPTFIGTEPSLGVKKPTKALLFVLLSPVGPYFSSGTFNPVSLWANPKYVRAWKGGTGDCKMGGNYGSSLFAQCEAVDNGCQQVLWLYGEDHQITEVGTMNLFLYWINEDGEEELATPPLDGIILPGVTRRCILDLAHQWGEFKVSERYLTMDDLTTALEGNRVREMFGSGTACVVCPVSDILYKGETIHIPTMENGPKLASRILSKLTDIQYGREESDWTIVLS
Summary of the method: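 Ten-point, 3-fold compound series (top final 100 μM, delivered 1:50 from 50× DMSO stocks) tested against hBCAT1. Inhibition detected via diaphorase-coupled resazurin fluorescence, duplicate wells, with values from repeated runs averaged.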

[2] = target: T2, BCAT2 (Homo sapiens, UniProt O15382); assay: BCAT2 in vitro enzyme inhibition assay (resazurin/diaphorase-coupled fluorescence); format: biochemical
T2 sequence (O15382 28-392): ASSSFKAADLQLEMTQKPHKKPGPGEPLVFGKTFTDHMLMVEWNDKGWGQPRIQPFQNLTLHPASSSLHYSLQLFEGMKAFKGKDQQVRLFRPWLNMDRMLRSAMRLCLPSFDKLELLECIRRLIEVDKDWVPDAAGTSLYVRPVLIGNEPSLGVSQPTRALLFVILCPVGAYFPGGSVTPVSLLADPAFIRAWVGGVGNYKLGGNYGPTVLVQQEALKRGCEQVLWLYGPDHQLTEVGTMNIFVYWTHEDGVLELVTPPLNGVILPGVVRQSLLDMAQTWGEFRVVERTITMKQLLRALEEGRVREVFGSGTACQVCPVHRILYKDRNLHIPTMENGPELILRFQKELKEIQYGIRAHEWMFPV
Summary of the method: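 Coupled fluorescence readout: glutamate formed from L-leucine/α-ketoglutarate transamination drives GDH/NAD/diaphorase reduction of resazurin (Ex 540/Em 590). Human BCAT2 was first exposed 1 h at room temperature to compound, top final 100 μM in 3-fold, 10-point series; substrate reaction ran 1 h before SDS quench, in technical duplicate with DMSO max and enzyme-free min controls.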

[3] = target: T2, BCAT2; assay: BCAT2 in vitro cell inhibition using engineered A549 cells (KMV cell assay, 13C6-KMV by LC-MS/MS); format: cell-based; set-up: The result was an engineered A549 cell line that expressed endogenous BCAT2; endogenous in cells; host or cells: A549 cells with MUT and BCAT1 knocked out by CRISPR/CAS9

Row | IC50 [1] [nM] | IC50 [2] [nM] | IC50 [3] [nM] | SMILES
1 | < 500 | ≤ 100 | 100 to 500 | CC(C)Cc1nc2cnc(-n3cc(F)cn3)cc2n1[C@@H]1C[C@@H](O)C[C@H](NC(=O)c2ncc(Cl)s2)C1 [Example 221, 5-chloro-N-((1R,3S,5S)-3-(6-(4-fluoro-1H-pyrazol-1-yl)-2-isobutyl-1H-imidazo[4,5-c]pyridin-1-yl)-5-hydroxycyclohexyl)thiazole-2-carboxamide]
2 | < 500 | ≤ 100 | 100 to 500 | CC(C)Cc1nc2cnc(-c3ccn[nH]3)cc2n1[C@@H]1CCC[C@H](NC(=O)c2ncc(Cl)s2)[C@H]1O [Example 225, 5-chloro-N-((1S,2R,3R)-2-hydroxy-3-(2-isobutyl-6-(1H-pyrazol-5-yl)-1H-imidazo[4,5-c]pyridin-1-yl)cyclohexyl)thiazole-2-carboxamide]
3 | < 500 | ≤ 100 | ≤ 100 | CO[C@H]1C[C@H](NC(=O)c2ncc(Cl)s2)C[C@H](n2c(CC(C)C)nc3cnc(-c4ncccn4)cc32)C1 [Example 435, 5-chloro-N-((1R,3S,5S)-3-(2-isobutyl-6-(pyrimidin-2-yl)-1H-imidazo[4,5-c]pyridin-1-yl)-5-methoxycyclohexyl)thiazole-2-carboxamide]
4 | < 500 | ≤ 100 | ≤ 100 | O=C(N[C@H]1CCC[C@@H](n2c(CC3(C(F)(F)F)CC3)nc3cnc(-c4nc[nH]n4)cc32)C1)c1ncc(Cl)s1 [Example 325, N-((1S,3R)-3-(6-(1H-1,2,4-triazol-3-yl)-2-((1-(trifluoromethyl)cyclopropyl)methyl)-1H-imidazo[4,5-c]pyridin-1-yl)cyclohexyl)-5-chlorothiazole-2-carboxamide]
5 | < 500 | ≤ 100 | ≤ 100 | COc1cccc(-c2cc3c(cn2)nc(-c2ccccc2F)n3[C@@H]2CCC[C@H](NC(=O)c3ncc(Cl)s3)C2)n1 [Example 179, 5-chloro-N-((1S,3R)-3-(2-(2-fluorophenyl)-6-(6-methoxypyridin-2-yl)-1H-imidazo[4,5-c]pyridin-1-yl)cyclohexyl)thiazole-2-carboxamide]
6 | < 500 | ≤ 100 | ≤ 100 | COc1ccccc1-c1nc2cnc(-c3nc[nH]n3)cc2n1[C@@H]1CCC[C@H](NC(=O)c2ncc(Cl)s2)C1 [Example 352, 5-chloro-N-((1S,3R)-3-(2-(2-methoxyphenyl)-6-(1H-1,2,4-triazol-3-yl)-1H-imidazo[4,5-c]pyridin-1-yl)cyclohexyl)thiazole-2-carboxamide]
7 | < 500 | ≤ 100 | ≤ 100 | O=C(N[C@H]1CCC[C@@H](n2c(-c3ccccc3F)nc3cnc(-c4ccccn4)cc32)[C@@H]1O)c1ncc(Cl)s1 [Example 242, 5-chloro-N-((1S,2R,3R)-3-(2-(2-fluorophenyl)-6-(pyridin-2-yl)-1H-imidazo[4,5-c]pyridin-1-yl)-2-hydroxycyclohexyl)thiazole-2-carboxamide]
8 | < 500 | ≤ 100 | ≤ 100 | O=C(N[C@H]1CCC[C@@H](n2c(-c3ncccc3F)nc3cnc(-n4cncn4)cc32)C1)c1ccc(Br)s1 [Example 16, 5-bromo-N-((1S,3R)-3-(2-(3-fluoropyridin-2-yl)-6-(1H-1,2,4-triazol-1-yl)-1H-imidazo[4,5-c]pyridin-1-yl)cyclohexyl)thiophene-2-carboxamide]
9 | 500 to 1000 | ≤ 100 | > 1000 | NCc1ccccc1-c1nc2cnc(-c3nc[nH]n3)cc2n1[C@@H]1CCC[C@H](NC(=O)c2ncc(Cl)s2)C1 [Example 366, N-((1S,3R)-3-(2-(2-(aminomethyl)phenyl)-6-(1H-1,2,4-triazol-3-yl)-1H-imidazo[4,5-c]pyridin-1-yl)cyclohexyl)-5-chlorothiazole-2-carboxamide]
10 | < 500 | ≤ 100 | ≤ 100 | O=C(N[C@H]1CCC[C@@H](n2c(-c3ccccc3F)nc3cnc(-c4ncccn4)cc32)[C@@H]1O)c1ncc(Cl)s1 [Example 245, 5-chloro-N-((1S,2R,3R)-3-(2-(2-fluorophenyl)-6-(pyrimidin-2-yl)-1H-imidazo[4,5-c]pyridin-1-yl)-2-hydroxycyclohexyl)thiazole-2-carboxamide]
11 | > 5000 | 100 to 500 | > 1000 | CC(C)Cc1nc2cnc(-c3nnco3)cc2n1[C@@H]1CCC[C@H](NC(=O)c2ncc(Cl)s2)C1 [Example 380, 5-chloro-N-((1S,3R)-3-(2-isobutyl-6-(1,3,4-oxadiazol-2-yl)-1H-imidazo[4,5-c]pyridin-1-yl)cyclohexyl)thiazole-2-carboxamide]
12 | < 500 | ≤ 100 | ≤ 100 | Cc1cnc(-c2cc3c(cn2)nc(-c2ccccn2)n3[C@@H]2CCC[C@H](NC(=O)c3ccc(Br)s3)C2)o1 [Example 18, 5-bromo-N-((1S,3R)-3-(6-(5-methyloxazol-2-yl)-2-(pyridin-2-yl)-1H-imidazo[4,5-c]pyridin-1-yl)cyclohexyl)thiophene-2-carboxamide]
13 | < 500 | ≤ 100 | ≤ 100 | CO[C@@H]1C[C@H](NC(=O)c2ncc(Cl)s2)C[C@H](n2c(CC(C)C)nc3cnc(-n4nccn4)cc32)C1 (single isomer, unassigned) [Example 439]
14 | 500 to 1000 | ≤ 100 | 100 to 500 | O=C(N[C@H]1CCC[C@@H](n2c(C3CCCCO3)nc3cnc(-c4nc[nH]n4)cc32)C1)c1ncc(Cl)s1 (single isomer, unassigned) [Example 89]
15 | 1000 to 5000 | ≤ 100 | 100 to 500 | O=C(NC1CNCC(n2c(-c3ncccc3F)nc3cnc(-n4nccn4)cc32)C1)c1ncc(C(F)F)s1 (stereo not drawn) [Example 125, 5-(difluoromethyl)-N-(5-(2-(3-fluoropyridin-2-yl)-6-(2H-1,2,3-triazol-2-yl)-1H-imidazo[4,5-c]pyridin-1-yl)piperidin-3-yl)thiazole-2-carboxamide]
16 | 1000 to 5000 | ≤ 100 | > 1000 | O=C(N[C@H]1CCC[C@@H](n2c(C3CCCOC3)nc3cnc(-c4nc[nH]n4)cc32)C1)c1ncc(Cl)s1 (single isomer, unassigned) [Example 102]
17 | < 500 | ≤ 100 | ≤ 100 | CC(C)Cc1nc2cnc(-c3nc(CO)cs3)cc2n1[C@@H]1CCC[C@H](NC(=O)c2ncc(Cl)s2)C1 [Example 330, 5-chloro-N-((1S,3R)-3-(6-(4-(hydroxymethyl)thiazol-2-yl)-2-isobutyl-1H-imidazo[4,5-c]pyridin-1-yl)cyclohexyl)thiazole-2-carboxamide]
18 | < 500 | ≤ 100 | > 1000 | CC(C)[C@H](O)c1nc2cnc(-c3ncccn3)cc2n1[C@@H]1CCC[C@H](NC(=O)c2ncc(Cl)s2)C1 [Example 171, 5-chloro-N-((1S,3R)-3-(2-((S)-1-hydroxy-2-methylpropyl)-6-(pyrimidin-2-yl)-1H-imidazo[4,5-c]pyridin-1-yl)cyclohexyl)thiazole-2-carboxamide]
19 | < 500 | ≤ 100 | 100 to 500 | NC1CC(NC(=O)c2ncc(Cl)s2)CC(n2c(-c3ccccc3F)nc3cnc(-c4nc[nH]n4)cc32)C1 (single isomer, unassigned) [Example 455, N-(3-amino-5-(2-(2-fluorophenyl)-6-(1H-1,2,4-triazol-3-yl)-1H-imidazo[4,5-c]pyridin-1-yl)cyclohexyl)-5-chlorothiazole-2-carboxamide]
20 | < 500 | ≤ 100 | 100 to 500 | O=C(NC1CCCCC(n2c(-c3c(O)cccc3F)nc3cnc(-c4nc[nH]n4)cc32)C1O)c1ccc(Cl)s1 (stereo not drawn) [Example 403, 5-chloro-N-(3-(2-(2-fluoro-6-hydroxyphenyl)-6-(1H-1,2,4-triazol-3-yl)-1H-imidazo[4,5-c]pyridin-1-yl)-2-hydroxycycloheptyl)thiophene-2-carboxamide]

From US20260159512A1, “BCAT2 INHIBITORS” (AGIOS PHARMACEUTICALS, INC., priority 2021, published 2026)
